Assay results taken from patent US10555957B2, “Methods and compositions for enriching DHA levels in the brain” (The Board of Trustees of the University of Illinois, a body …, priority 2017, dated 2020).
Several values for one entry are separate records, joined by “and”; a condition that tells them apart may be missing. Equal entries are not always repeated.

Columns and labels:
[1] = Feeding study, daily gavage for 30 days: fatty acid and DHA lipid species of plasma, liver, heart, adipose tissue and brain regions
BDNF [2] = test: BDNF concentration in the brain regions by ELISA; assay type: in vivo, C57BL/6 mice; conditions: 1 mg DHA/day, 30 days, n=6
Description: Therefore, we determined BDNF concentration in the brain regions by ELISA to complement our MWM data.

normal adult mice = test: Morris water maze test; assay type: in vivo, C57BL/6 mice; conditions: for latency time to the previous platform area / time in the target quadrant: n=5; for finding the previous platform area, faster than the control and free DHA groups / time spent in the target quadrant versus control and free DHA groups: study 1, probe trial
[3] = Intestinal absorption of micellar DHA into lymph (HDL, chylomicrons; PC, TAG) in rats with lymph duct cannulation; assay type: in vivo, Sprague-Dawley rats
Description: Two types of micelle, one containing the DHA as free fatty acid, and the other containing the DHA as LPC, were prepared by sonication. All components except taurocholate were added as chloroform solutions to a glass tube and the solvent was evaporated under nitrogen. Then 10 ml of sodium taurocholate solution (12 mM, in PBS, pH 7.4) was added to the tube and the lipids dispersed by vortexing for 1 min. The mixture was then sonicated in a Sonics Vibro Cell sonicator at 40% setting for four 30 sec pulses at 1 min intervals, while the tube was immersed in ice. The resulting micelle were optically clear, and were used immediately for infusion into rats.
Thoracic lymph duct cannulation was carried out as described with slight modifications. The rats were fasted overnight before the procedure. Under analgesics and isoflurane anesthesia, the abdomen was opened, the dorsal parietal peritoneum was incised, and the aorta was dissected free from the surrounding muscle and thoracic duct. The duct was cannulated (3-5 mm) with a heparin (500 units/ml) and saline-rinsed, pre-cut catheter (16 gauge, BD Angiocath). Following insertion, the catheter was connected to ‘U” shaped secured Silastic Laboratory tubing to prevent displacement or dislodgement. Micelle (10 ml) were infused at a rate of 3 ml/h into the duodenum (Harvard pump) through a second catheter positioned into the duodenum, followed by the infusion of 10 ml PBS, at 3 ml/h. The abdomen was closed and the lymph was collected for 6 h, in 30 min fractions into tubes containing 1.0 ml of PBS, while the animal was under anesthesia. The body temperature of the animal was maintained at 37° C. with the help of a heating pad.
The volume of each lymph fraction was made up to 2.0 ml with PBS, containing 1 mM EDTA (final). The density of lymph fraction was raised to 1.063 g/ml by the addition of KBr and centrifuged at 100,000×g for 4 h at 4° C. in the TLA 100.3 rotor of the Beckman TL-100 ultracentrifuge. One ml of the bottom layer was aspirated to a new tube (HDL) and the remaining 1.0 ml was taken as the chylomicrons (CM).
Extraction and Analysis of Lipids. The total lipids of HDL and CM were extracted by the Bligh and Dyer method after spiking the samples with 25 μg each of 15:0-15:0-15:0 TAG and 17:0-17:0 PC. The lipid extract was applied to an aminopropyl silica cartridge (100 mg) in 1 ml of chloroform under gravity, and the cartridge was washed with chloroform (2×1.0 ml) to elute the TAG and cholesteryl esters. […] The PC was then eluted with 2.0 ml of chloroform: methanol (3:2, v/v)).
The temperature program was as follows: 165° C. for 1 min, raised to 210° C. at the rate of 6.5° C./min, followed by raising to 240° C. at the rate of 3.5° C./min, and maintaining at 240° C. for 10 min. The total analysis time was 26.5 min. The injection temperature was 250° C., ion source temperature 230° C. and the interface temperature was 250° C. […] The identification of individual FAME was done by comparison of retention times with the standard mixture (PUFA2, Sigma) as well as by the characteristic fragment ions (m/z 74 for saturated, m/z 55 for monounsaturated, m/z 67 for diunsaturated, and m/z 79 for polyunsaturated).

[4] = Isomerization / isomer stability of LPC-DHA; assay type: physicochemical
Description: LPC-DHA was prepared by the hydrolysis of 16:0-22:6 PC by immobilized Mucor lipase (Lipozyme) by a modification of the published procedure. Briefly, 100 mg of Lipozyme was added to 50 mg of 16:0-22:6 PC dissolved in 1 ml of 95:5 (v/v) ethanol: water. The reaction mixture was incubated at 37° C. for 72 h under nitrogen with shaking. The reaction mixture was dried under nitrogen and extracted with 4 ml of ethanol: water: hexane (2:1:1, by vol) mixture to remove the free fatty acid. The lower layer was concentrated under nitrogen and extracted by Bligh and Dyer procedure. The final sample contained 95% LPC, the rest being unhydrolyzed PC, as determined by lipid phosphorus estimation after TLC separation. Although this enzyme produces sn-2 22:6 LPC, this isomer is unstable, and is non-enzymatically isomerized to sn-1-22:6 LPC [24,25].
sn-2 DHA LPC was prepared by the hydrolysis of 16:0-22:6 PC with immobilized Mucor lipase (Lipozyme) by a modification of the published procedure^44. […] The preparation contained >95% of lipid phosphorus in LPC DHA and the rest in unhydrolyzed PC, as determined by TLC, and was used for feeding studies without further purification. […] More than 95% of the 2-acyl LPC DHA was converted to 1-acyl isomer under these conditions, as determined by LC/MS.

[5] = ref [32]; cited from earlier work
[6] = Feeding free EPA or LPC-EPA for 15 days: omega 3 fatty acids and arachidonic acid in tissues; assay type: in vivo, Mice; conditions: 1 mg EPA/day for 15 days
[7] = as above; assay type: in vivo, Mice; conditions: oral; for all three n-3 fatty acids in the liver / decrease in liver arachidonic acid level / decrease of brain content of arachidonic acid: 15 days; for increase of brain DHA content: corn oil gavage
Description: Mice were fed oral preparations of free EPA or LPC-EPA at about 1 mg/kg per day for 15 days. The compounds were dispersed in corn oil (80 μl) and fed daily by gavge.

[8] = cited from earlier work
BDNF [9] = test: BDNF levels in the brain after feeding free EPA or LPC-EPA; assay type: in vivo, Mice; conditions: 1 mg EPA/day for 15 days
Description: The compounds were dispersed in corn oil (80 μl) and fed daily by gavge. Results are shown in e.g. […]. […] See e.g. FIGS. 23A-23C.

[10] = about 1 mg/kg per day for 15 days

CC/C=C\C/C=C\C/C=C\C/C=C\C/C=C\C/C=C\CCC(=O)O [free DHA, (4Z,7Z,10Z,13Z,16Z,19Z)-docosa-4,7,10,13,16,19-hexaenoic acid, reference compound]
DHA concentration and 22:6/20:4 ratio in adipose tissue ([1]; 1 mg DHA/day, 30 days): increase
20:4-22:6 PC in the hippocampus ([1]; LC/MS/MS): increased
DHA-PC species in plasma ([1]; LC/MS/MS): not
major species of DHA-PE in the hippocampus ([1]; LC/MS/MS): not
plasma TAG species containing DHA ([1]; LC/MS/MS): increased more
LPC DHA concentration of plasma ([1]; LC/MS/MS, 1 mg DHA/day, 30 days): not
22:6/20:4 ratio in brain regions ([1]; all regions of brain): no significant increase
increase of brain DHA levels in normal adult mice ([1]; equal amount of DHA, 30 days): did not appreciably increase
BDNF content in regions of the brain (BDNF [2]): no change
latency time to the previous platform area (normal adult mice; second study, probe trial): 47.1 s
time in the target quadrant (normal adult mice; second study, probe trial): 12 s
percentage of 22:6/22:6/18:1 TAG species ([3]; HDL and CM, free DHA compared to LPC-DHA): significantly higher
TAG species containing DHA at all 3 positions ([3]; free DHA compared to LPC-DHA absorption): significantly higher
significant amount of free DHA in the lymph after infusion [3]: not observed

CC/C=C\C/C=C\C/C=C\C/C=C\C/C=C\C/C=C\CCC(=O)O[C@H](CO)COP(=O)([O-])OCC[N+](C)(C)C [sn-2 DHA LPC]
22:6/20:4 ratio in liver ([1]; 1 mg DHA/day, 30 days): increase
DHA concentration in liver ([1]; 1 mg DHA/day, 30 days): significantly increased
concentration of 20:4 in liver ([1]; 1 mg DHA/day, 30 days): parallel decrease
enrichment of all the brain regions with DHA ([1]; cortex, cerebellum, hippocampus, striatum, amygdala, % of total fatty acids): significantly enriched
BDNF content in regions of the brain (BDNF [2]): significantly increased
isomerization to the sn-1 isomer, compared with sn-2 16:0 LPC ([4]; physiological pH and temperature, unpublished results): much slower
LPC remaining as sn-2 isomer ([4]; stored in chloroform: methanol (9:1) at −20° C., at least 4 weeks): Over 90%
finding the previous platform area, faster than the control and free DHA groups (normal adult mice): 7 times
time spent in the target quadrant versus control and free DHA groups (normal adult mice): twice as long

CCCCCCCCCCCCCCCC(=O)OCC(O)COP(=O)([O-])OCC[N+](C)(C)C (stereo not drawn) [16:0 LPC]
recovery of 16:0 in lymph PC after infusion of 16:0 LPC [5]: 25-30%

CC/C=C\C/C=C\C/C=C\C/C=C\C/C=C\CCCC(=O)O [free EPA, eicosapentaenoic acid]
enriching the total omega 3 fatty acids in the heart [6]: equally efficient
omega 3 fatty acid content of adipose tissue [6]: enriched more
omega 3 fatty acids in erythrocytes [6]: increased
all three n-3 fatty acids in the liver [7]: increased
decrease in liver arachidonic acid level [7]: ~60%
decrease of brain content of arachidonic acid [7]: ~12%
increase of brain EPA (in words) [7, 10]: to a small extent
increase of total amount of brain Omega 3 fatty acids (EPA+DPA+DHA) [7, 10]: no change
increase of brain DHA content [7, 10]: no effect

docosahexaenoic acid-lysophosphatidylcholine [LPC-DHA]
increase of DHA content in most regions of the brain (nmol of DHA per mg wet weight) ([1]; 1 mg DHA/day, 30 days): 2-3 fold
percentage of DHA in plasma ([1]; % of total fatty acids, 1 mg DHA/day, 30 days): greater
brain uptake of injected compound compared with free DHA ([8]; kinetic studies [7]): higher
efficiency of passing through the BBB compared with free fatty acid ([8]; previous studies in animals [5,6]): about 10 times
decrease in the latency to previous platform area, compared to the control or free DHA treated animals (normal adult mice; probe trial): 7 fold
increase in the time spent in the target quadrant, compared to the control or free DHA treated animals (normal adult mice; probe trial): 2 fold
percentage of 16:0/22:6 PC ([3]; HDL and CM, LPC-DHA compared to free DHA absorption): significantly lower
significant amount of free DHA in the lymph after infusion [3]: not observed
increase in amount of DHA recovered in lymph HDL, compared to free DHA absorption ([3]; lymph HDL): > 2 fold
hydrolysis in the intestinal lumen (intestinal contents after the 6 h lymph collection) ([3]; some experiments): no hydrolysis of LPC in the lumen
percent of whole lymph DHA appearing in PC, LPC compared to free fatty acid ([3]; whole lymph): 5 times
percent of whole lymph DHA appearing in PC ([3]; whole lymph, mean±SEM): 18.72±2.88% and 18%

eicosapenteanoic acid-lysophosphatidylcholine [LPC-EPA]
BDNF levels in the brain (BDNF [9]): increased
arachidonic acid in the brain, LPC-EPA versus free EPA [6]: decreased it more
concentration of arachidonic acid in all tissues [6]: decreased
enriching the total omega 3 fatty acids in the heart [6]: equally efficient
all three n-3 fatty acids in the liver [7]: increased
decrease in liver arachidonic acid level [7]: ~60%
decrease of brain content of arachidonic acid [7]: ~40%
increase of total amount of brain Omega 3 fatty acids (EPA+DPA+DHA) [7, 10]: about 90%
increase of brain DHA content [7, 10]: 60%

CC/C=C\C/C=C\C/C=C\C/C=C\C/C=C\C/C=C\CCC(=O)OC[C@@H](O)COP(=O)([O-])OCC[N+](C)(C)C [sn-1 DHA LPC]
18:1-22:6 PC in plasma, between the two LPC isomers ([1]; mouse, in vivo): greater increase
22:6/20:4 ratio in liver ([1]; mouse, in vivo): significantly increased
DHA concentration in liver ([1]; mouse, in vivo): did not reach statistical significance
enrichment of all the brain regions with DHA ([1]; mouse, in vivo): significantly enriched
increase in plasma LPC DHA, sn-1 DHA LPC compared to sn-2 DHA LPC ([1]; mouse, in vivo): 28%
increase of DHA content (nmol/mg) in striatum and amygdala ([1]; mouse, in vivo): did not reach statistical significance
BDNF content in regions of the brain (BDNF [2]): significantly increased
acquisition phase, learning the location of the platform by Day 5 (normal adult mice; second study): faster
latency time to the previous platform area (normal adult mice; second study, probe trial): 12.7 s
time in the target quadrant (normal adult mice; second study, probe trial): 29.9 s
finding the previous platform area, faster than the control and free DHA groups (normal adult mice): 7 times
time spent in the target quadrant versus control and free DHA groups (normal adult mice): twice as long
